Literature values as cited in patent publication US20030180354A1 (DR. REDDY'S LABORATORIES LIMITED, priority 2001, published 2003).

Conditions: in man

SMILES: CCOC(=O)C1=C(COCCN)NC(C)=C(C(=O)OC)C1c1ccccc1Cl (racemic) [Amlodipine, (±)-2-[(2-Aminoethoxy)methyl]-4-(2-chlorophenyl)-3-ethoxycarbonyl-5-methoxycarbonyl-6-methyl-1,4-dihydropyridine]
- Oral bioavailability: 64%
